Data set [1] can be described thus: physchem.
The nature of data set [2]: in vitro. The settings on record: PAMPA. For orientation: In PAMPA a lipid-coated filter parts donor from acceptor wells.

Molecules are shown by their SMILES. Converted amounts (≈) assume the structure as drawn.

In data set [1], `COc1cccc([C@@H](C)NC(=O)c2ccc(-c3ccncn3)cc2N2CCC[C@@H](CN)C2)c1` displayed a solubility of 51.2 µM (≈ 22.8 µg/mL). Besides, the Papp in data set [2] was determined as 2.5 ×10⁻⁶ cm/s.

Turning to `COc1cccc([C@@H](C)NC(=O)c2ccc(-c3ccncn3)cc2N2CC[C@@H](CN)C2)c1`, the solubility in data set [1] was 63.9 µM (≈ 27.6 µg/mL). This molecule came in with a Papp in data set [2] of 1.4 ×10⁻⁶ cm/s.

`COc1cccc([C@@H](C)NC(=O)c2ccc(-c3ccncn3)cc2N2CCC[C@H](CN)C2)c1` displayed a solubility in data set [1] of 65.5 µM (≈ 29.2 µg/mL). The molecule also had a Papp in data set [2] of 2.6 ×10⁻⁶ cm/s.

A word on the solubility: it is the dissolved amount per volume that the medium holds. A low value points to little dissolved substance. The Papp is the rate of passage across a membrane or cell layer, normalised by area and donor concentration. A high value points to ready permeation.

Source of the values: ChEMBL document CHEMBL4325872, “Identification of Selective Dual ROCK1 and ROCK2 Inhibitors Using Structure-Based Drug Design” (J Med Chem, 2018).
